Measured values taken from publication PMC9506485, “Synthesis and Structure–Activity Relationships for the Anti-Mycobacterial Activity of 3-Phenyl-N-(Pyridin-2-ylmethyl)Pyrazolo[1,5-a]Pyrimidin-7-Amines” (Pharmaceuticals, 2022).
Converted amounts (≈) assume the structure as drawn.

What was measured:
[1] = tested on: Mycobacterium tuberculosis (strain H37Rv); experiment: MABA minimum inhibitory concentration assay (aerobic/replicating); assay type: cell-based; conditions: M.tb H37Rv; for anti-mycobacterial activity in words: MABA/LORA; for MIC90: Mycobacterium tuberculosis, aerobic/replicating, 90% inhibition of growth
[2] = tested on: Mycobacterium tuberculosis (strain H37Rv); experiment: LORA minimum inhibitory concentration assay (low-oxygen/non-replicating); conditions: M.tb H37Rv, 90% inhibition of growth
[3] = Microsomal stability, mouse liver microsomes; assay type: in vitro ADME; conditions: for CLint scaled at 1 μM / half-life at 1 μM: CD-1, mouse, microsomes, pH 7.4; for microsomal CLint at 1 μM: CD-1, pH 7.4, mouse liver microsomes, read-out: MLM Clint(mic)
Method: (§1) Assays were performed by WuXi AppTec (Shanghai) Co., Ltd. The test compounds (Table 4) (at 1 μM) were incubated at 37 °C with liver microsomes from human or CD-1 mice in the presence of a NADPH regenerating system and phosphate buffer (100 mM, pH 7.4) at 0.5 mg/mL microsomal protein (the positive controls were testosterone, propafenone, and diclofenac). Samples were removed at time intervals of 0, 5, 10, 20, 30, and 60 min and immediately mixed with cold CH3CN (containing 0.1 μg/mL of tolbutamide as an internal standard) and then centrifuged prior to analysis by LCMS/MS.

[4] = Microsomal stability, human liver microsomes; assay type: in vitro ADME; conditions: pH 7.4; for microsomal CLint at 1 μM: human liver microsomes, read-out: HLM Clint(mic)
Method: as §1

[5] = biological target: hERG (Homo sapiens, UniProt Q12809); experiment: hERG channel blockade, manual patch clamp; assay type: cell-based; conditions: cloned hERG potassium channels, room temperature; for inhibition at 0.3 µM: read-out: hERG % inhib. at 0.3 µM; for inhibition at 1 µM: read-out: hERG % inhib. at 1.0 µM
hERG, sequence (Q12809 whole entry): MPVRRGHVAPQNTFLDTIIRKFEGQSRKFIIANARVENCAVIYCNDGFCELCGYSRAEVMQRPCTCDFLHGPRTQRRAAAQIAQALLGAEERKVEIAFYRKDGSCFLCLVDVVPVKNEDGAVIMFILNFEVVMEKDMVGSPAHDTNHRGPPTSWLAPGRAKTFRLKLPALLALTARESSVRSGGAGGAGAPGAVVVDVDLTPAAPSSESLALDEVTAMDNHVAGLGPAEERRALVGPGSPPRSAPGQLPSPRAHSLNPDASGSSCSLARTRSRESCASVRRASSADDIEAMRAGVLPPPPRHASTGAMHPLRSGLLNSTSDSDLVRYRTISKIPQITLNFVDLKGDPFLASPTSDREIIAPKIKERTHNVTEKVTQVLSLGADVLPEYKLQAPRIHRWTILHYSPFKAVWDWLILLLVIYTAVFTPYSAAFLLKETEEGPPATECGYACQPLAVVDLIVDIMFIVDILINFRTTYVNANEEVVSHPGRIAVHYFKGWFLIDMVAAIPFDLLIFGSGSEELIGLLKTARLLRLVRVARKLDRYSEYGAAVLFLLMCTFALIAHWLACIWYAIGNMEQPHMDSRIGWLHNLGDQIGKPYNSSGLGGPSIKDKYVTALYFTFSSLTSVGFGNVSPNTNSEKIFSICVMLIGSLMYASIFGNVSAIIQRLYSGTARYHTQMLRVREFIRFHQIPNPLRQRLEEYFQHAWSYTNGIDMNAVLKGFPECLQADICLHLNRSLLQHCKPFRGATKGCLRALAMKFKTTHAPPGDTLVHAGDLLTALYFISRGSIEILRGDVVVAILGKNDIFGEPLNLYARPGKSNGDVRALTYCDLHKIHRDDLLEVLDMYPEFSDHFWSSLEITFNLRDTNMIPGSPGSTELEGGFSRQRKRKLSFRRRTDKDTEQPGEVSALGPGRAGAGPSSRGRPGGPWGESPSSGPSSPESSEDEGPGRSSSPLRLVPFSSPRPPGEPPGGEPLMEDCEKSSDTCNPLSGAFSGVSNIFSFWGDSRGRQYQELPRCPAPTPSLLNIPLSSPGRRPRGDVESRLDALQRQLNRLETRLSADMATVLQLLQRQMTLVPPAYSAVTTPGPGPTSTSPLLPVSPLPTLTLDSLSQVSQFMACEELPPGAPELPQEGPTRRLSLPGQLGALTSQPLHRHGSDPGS
Method: Selected compounds were evaluated for hERG channel blockade (Table 4) by WuXi AppTec (Shanghai) Co., Ltd. This was carried out using cloned hERG potassium channels according to their standard manual patch clamp method. Two concentrations (0.3 and 1.0 µM) were tested (at room temperature), and at least three replicates were obtained for each. Amitryptyline was used as a standard.

[6] = tested on: VERO green monkey kidney cells; experiment: VERO mammalian cell toxicity assay; assay type: cell-based; conditions: Chlorocebus sabaeus; inhibition of growth of VERO green monkey kidney epithelial cells
[7] = human/mouse liver microsomes not distinguished, read-out: T½ values (microsomal stability)

Row | SMILES | anti-mycobacterial activity in words [1] | MIC90 [1] [µg/mL] | MIC90 LORA [2] [µg/mL] | CLint scaled at 1 μM [3] [mL/min/kg] | half-life at 1 μM [3] [h] | microsomal CLint at 1 μM [3] [µL/min/mg] | CLint scaled at 1 μM ([4]; human, microsomes) [mL/min/kg] | half-life at 1 μM ([4]; human, microsomes) [h] | microsomal CLint at 1 μM [4] [µL/min/mg] | half-life at 1 μM [4, 7] [h] | inhibition at 0.3 µM [5] [%] | inhibition at 1 µM [5] [%] | melting point [°C] | IC50 [6] [µg/mL]
1 | Fc1ccc(-c2cnn3c(NCc4ccccn4)cc(-c4ccccc4)nc23)cc1 [Compound 18, 3-(4-Fluorophenyl)-5-phenyl-N-(pyridin-2-ylmethyl)pyrazolo[1,5-a]pyrimidin-7-amine] | active | 3.8 (≈ 9.61 µM) | 0.40 (≈ 1.01 µM) | 99 | 0.933 | 25 | 12 | 1.75 | 13 | < 1.42 | 0.3 | 5 | 191 to 193 | > 32
2 | COc1ccc(-c2cnn3c(NCc4ccccn4)cc(-c4ccccc4)nc23)cc1 [Compound 20, 3-(4-Methoxyphenyl)-5-phenyl-N-(pyridin-2-ylmethyl)pyrazolo[1,5-a]pyrimidin-7-amine] | active | 3.6 (≈ 8.83 µM) | 0.51 (≈ 1.25 µM) | 92 | 1 | 23 | 20 | 1.03 | 22 | < 1.42 | 0 | 0 | 187 to 189 | > 32
3 | Fc1ccc(-c2cnn3c(NCc4ccccn4)cc(C4CC4)nc23)cc1 [Compound 25, 5-Cyclopropyl-3-(4-fluorophenyl)-N-(pyridin-2-ylmethyl)pyrazolo[1,5-a]pyrimidin-7-amine] |  | 1.54 (≈ 4.28 µM) | 0.20 (≈ 0.556 µM) | 424 | 0.217 | 107 | 68 | 0.3 | 76 | < 1.42 | 8 | 19 |  | 23.4 (≈ 65.1 µM)
4 | Fc1ccc(-c2cnn3c(NCc4ccccn4)cc(-c4ccccc4F)nc23)cc1 [Compound 28, 5-(2-Fluorophenyl)-3-(4-fluorophenyl)-N-(pyridin-2-ylmethyl)pyrazolo[1,5-a]pyrimidin-7-amine] |  | 1.79 (≈ 4.33 µM) | 0.22 (≈ 0.532 µM) | 113 | 0.817 | 29 | 18 | 1.15 | 20 | < 1.42 | 17 | 36 |  | > 32
5 | Cc1cccc(-c2cc(NCc3ccccn3)n3ncc(-c4ccc(F)cc4)c3n2)c1 [Compound 30, 3-(4-Fluorophenyl)-N-(pyridin-2-ylmethyl)-5-(m-tolyl)pyrazolo[1,5-a]pyrimidin-7-amine] |  | 1.6 (≈ 3.91 µM) | 0.9 (≈ 2.2 µM) | < 38 | > 2.42 | < 9.6 | < 8.6 | > 2.42 | < 9.6 |  | 3 | 11 |  | > 32
6 | COc1ccc(-c2cc(NCc3ccccn3)n3ncc(-c4ccc(F)cc4)c3n2)cc1 [Compound 34, 3-(4-Fluorophenyl)-5-(4-methoxyphenyl)-N-(pyridin-2-ylmethyl)pyrazolo[1,5-a]pyrimidin-7-amine] |  | 1.5 (≈ 3.53 µM) | 0.25 (≈ 0.588 µM) | 88 | 1.05 | 22 | 16 | 1.28 | 18 | < 1.42 | 0 | 1 |  | > 32
7 | CC(C)c1ccc(-c2cc(NCc3ccccn3)n3ncc(-c4ccc(F)cc4)c3n2)cc1 [Compound 35, 3-(4-Fluorophenyl)-5-(4-isopropylphenyl)-N-(pyridin-2-ylmethyl)pyrazolo[1,5-a]pyrimidin-7-amine] |  | 1.8 (≈ 4.11 µM) | 1.0 (≈ 2.29 µM) | < 38 | > 2.42 | < 9.6 | < 8.6 | > 2.42 | < 9.6 |  | 1 | 1 |  | > 32
8 | CC(C)(C)c1ccc(-c2cc(NCc3ccccn3)n3ncc(-c4ccc(F)cc4)c3n2)cc1 [Compound 36, 5-(4-(Tert-butyl)phenyl)-3-(4-fluorophenyl)-N-(pyridin-2-ylmethyl)pyrazolo[1,5-a]pyrimidin-7-amine] |  | 1.7 (≈ 3.76 µM) | 1.9 (≈ 4.21 µM) | < 38 | > 2.42 | < 9.6 | < 8.6 | > 2.42 | < 9.6 |  | 0 | 0 |  | > 32
9 | Fc1ccc(-c2cnn3c(NCc4ccccn4)cc(-c4ccc(OC(F)(F)F)cc4)nc23)cc1 [Compound 38, 3-(4-Fluorophenyl)-N-(pyridin-2-ylmethyl)-5-(4-(trifluoromethoxy)phenyl)pyrazolo[1,5-a]pyrimidin-7-amine] |  | 1.9 (≈ 3.96 µM) | 1.1 (≈ 2.29 µM) | < 38 | > 2.42 | < 9.6 | 15 | 1.43 | 16 | < 1.42 | 2 | 2 |  | > 32
10 | Fc1ccc(-c2cnn3c(NCc4ccccn4)cc(-c4cccnc4)nc23)cc1 [Compound 39, 3-(4-Fluorophenyl)-N-(pyridin-2-ylmethyl)-5-(pyridin-3-yl)pyrazolo[1,5-a]pyrimidin-7-amine] |  | 2.3 (≈ 5.8 µM) | 0.30 (≈ 0.757 µM) | 445 | 0.2 | 112 | 57 | 0.367 | 63 | < 1.42 | 16 | 46 |  | > 32
11 | Fc1ccc(-c2cnn3c(NCc4ccccn4)cc(-c4cccs4)nc23)cc1 [Compound 41, 3-(4-Fluorophenyl)-N-(pyridin-2-ylmethyl)-5-(thiophen-2-yl)pyrazolo[1,5-a]pyrimidin-7-amine] |  | 0.99 (≈ 2.47 µM) | 0.36 (≈ 0.897 µM) | 163 | 0.567 | 41 | 75 | 0.283 | 83 | < 1.42 | 0 | 0 |  | > 32
12 | Fc1ccc(-c2cnn3c(NCc4ccccn4)cc(-c4ccsc4)nc23)cc1 [Compound 42, 3-(4-Fluorophenyl)-N-(pyridin-2-ylmethyl)-5-(thiophen-3-yl)pyrazolo[1,5-a]pyrimidin-7-amine] |  | 1.4 (≈ 3.49 µM) | 0.22 (≈ 0.548 µM) | 298 | 0.3 | 75 | 43 | 0.483 | 47 | < 1.42 | 9 | 24 |  | > 32
13 | Fc1ccc(-c2cnn3c(NCc4ccccn4)cc(-c4ccoc4)nc23)cc1 [Compound 44, 3-(4-Fluorophenyl)-5-(furan-3-yl)-N-(pyridin-2-ylmethyl)pyrazolo[1,5-a]pyrimidin-7-amine] |  | 0.96 (≈ 2.49 µM) | 0.16 (≈ 0.415 µM) | 570 | 0.167 | 144 | 66 | 0.317 | 74 | < 1.42 | 4 | 14 |  | > 32
14 | Cc1ccnc(CNc2cc(-c3ccccc3)nc3c(-c4ccc(F)cc4)cnn23)c1 [Compound 62, 3-(4-Fluorophenyl)-N-((4-methylpyridin-2-yl)methyl)-5-phenylpyrazolo[1,5-a]pyrimidin-7-amine] |  | 1.8 (≈ 4.4 µM) | 0.5 (≈ 1.22 µM) | < 38 | > 2.42 | < 9.6 | < 8.6 | > 2.42 | < 9.6 |  |  |  | 157 to 159 | > 32
